Experimental data: patent publication US7781474B2, “Inhibitors of hepatitis C virus replication” (InterMune, Inc., priority 2006, dated 2010)
pIC50: −log10 of the molar value. Counter-ions that a name gives are not always drawn.

biological target: T1, NS3/NS4A-2 (Hepatitis C virus genotype 1a, UniProt P27958); assay: NS3 inhibition assay (NS3-NS4 protease assay); type: biochemical, hepatitis C virus (HCV); conditions: recombinant full-length NS3 (E. coli or Baculovirus) complexed with NS4A-2; RETS1 substrate
T1 construct: Recombinant E. coli or Baculovirus full-length NS3 was diluted to 3.33 μM with assay buffer; made in house; host or cells: E. coli or Baculovirus (insect cells)
T1 sequence (P27958 1027-1657): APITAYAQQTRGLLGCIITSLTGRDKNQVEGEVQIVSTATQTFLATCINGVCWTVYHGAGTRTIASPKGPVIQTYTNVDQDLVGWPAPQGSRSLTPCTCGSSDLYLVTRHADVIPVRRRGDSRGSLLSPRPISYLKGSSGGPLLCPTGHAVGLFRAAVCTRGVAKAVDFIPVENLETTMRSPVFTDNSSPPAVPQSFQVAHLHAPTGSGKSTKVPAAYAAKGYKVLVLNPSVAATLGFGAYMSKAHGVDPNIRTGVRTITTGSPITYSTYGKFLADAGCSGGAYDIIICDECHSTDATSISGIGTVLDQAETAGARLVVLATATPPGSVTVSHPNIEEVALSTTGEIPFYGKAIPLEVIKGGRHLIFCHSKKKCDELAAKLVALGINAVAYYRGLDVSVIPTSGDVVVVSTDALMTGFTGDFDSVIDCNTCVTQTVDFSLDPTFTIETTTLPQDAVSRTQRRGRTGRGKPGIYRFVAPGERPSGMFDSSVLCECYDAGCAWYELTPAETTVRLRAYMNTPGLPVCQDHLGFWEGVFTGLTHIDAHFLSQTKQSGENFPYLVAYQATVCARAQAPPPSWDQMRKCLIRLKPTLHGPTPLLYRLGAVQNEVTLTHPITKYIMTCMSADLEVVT
Experimental: NS3 Complex Formation with NS4A-2.
Recombinant E. coli or Baculovirus full-length NS3 was diluted to 3.33 μM with assay buffer and transferred material to an eppendorf tube and place in water bath in 4° C. refrigerator. The appropriate amount of NS4A-2 to 8.3 mM in assay buffer was added to equal the volume of NS3 in step 2.1.1 (conversion factor—3.8 mg/272 μL assay buffer). The material was transferred to an eppendorf tube and place in water bath in 4° C. refrigerator.
After equilibration to 4° C., equal volumes of NS3 and NS4A-2 solutions were combined in an eppendorf tube, mix gently with a manual pipettor, and incubate mixture for 15 minutes in the 4° C. water bath. Final concentrations in the mixture are 1.67 μM NS3, 4.15 mM NS4A-2 (2485-fold molar excess NS4A-2).
After 15 minutes at 4° C., the NS3/NS4A-2 eppendorf tube was removed and place it in a room temperature water bath for 10 minutes. NS3/NS4A-2 was alliquoted at appropriate volumes and store at −80° C. (E. coli NS3 run at 2 nM in assay, aliquot at 25 μL. BV NS3 run at 3 nM in assay, aliquot at 30 μL).
Sample compounds were dissolved to 10 mM in DMSO then diluted to 2.5 mM (1:4) in DMSO. Typically, compounds were added to an assay plate at 2.5 mM concentration, yielding upon dilution a starting concentration of 50 microM in the assay inhibition curve. Compounds were serial diluted in assay buffer to provide test solutions at lower concentrations.
The E. coli. NS3/NS4A-2 was diluted to 4 nM NS3 (1:417.5 of 1.67 μM stock−18 μL 1.67 μM stock+7497 μL assay buffer). The BV NS3/NS4A-2 was diluted to 6 nM NS3 (1:278.3 of 1.67 μM stock−24 μL 1.67 μM stock+6655 μL assay buffer). Using the manual multichannel pipettor, careful not to introduce bubbles into the plate, add 50 μL assay buffer to wells A01-H01 of a black Costar 96-well polypropylene storage plate.
Using the manual multichannel pipettor, careful not to introduce bubbles into the plate, add 50 μL of diluted NS3/NS4A-2 from step 2.2.6 to wells A02-H12 of plate in step 2.2.7. Using the manual multichannel pipettor, careful not to introduce bubbles into the plate, transfer 25 μL of the wells in drug dilution plate in step 2.2.5 to corresponding wells in assay plate in step 2.2.8. Change tips on multichannel pipettor for each row of compounds transferred. Using the manual multichannel pipettor, careful not to introduce bubbles into the plate, mix the wells from the assay plate in step 2.2.9 by aspirating and dispensing 35 μL of the 75 μL in each well five times. Change tips on multichannel pipettor for each row of wells mixed. Cover plate with a polystyrene plate lid and pre-incubate the plate from step 2.2.10 containing NS3 protease and sample compounds 10 minutes at room temperature. While plate from step 2.2.11 is pre-incubating, dilute RETS1 substrate in a 15 mL polypropylene centrifuge tube. Dilute RETS1 substrate to 8 μM (1:80.75 of 646 μM stock−65 μL 646 μM stock+5184 μL assay buffer).
After the plate in step is done pre-incubating, and using the manual multichannel, add 25 μL of substrate to all wells on the plate. Quickly mix the plate as in step 2.2.10, mixing 65 μL of the 100 μL in the wells.
Read the plate in kinetic mode on the Molecular Devices SpectraMax Gemini XS plate reader. Reader settings: Read time: 30 minutes, Interval: 36 seconds, Reads: 51, Excitation λ: 335 nm, Emission λ: 495 nm, cutoff: 475 nm, Automix: off, Calibrate: once, PMT: high, Reads/well: 6, Vmax pts: 21 or 28/51 depending on length of linearity of reaction
IC50s are determined using a four parameter curve fit equation, and converted to Ki's using the following Km's: Full-length E. coli NS3−2.03 μM Full-length BV NS3−1.74 μM
where Ki=IC50/(1+[S]/Km))

Row | SMILES | pIC50
1 | O=C(CNC(=O)C1CNCc2c[nH]nc21)NS(=O)(=O)C1CC1 (stereo not shown) [Compound 109] | 4.30 to 5.00
2 | CCC[C@H](NC(=O)C1CN(C(=O)Cc2ccccc2)Cc2c[nH]nc21)C(=O)NS(=O)(=O)C1CC1 (stereo partly shown) [Compound 106] | 4.30 to 5.00
3 | O=C(O)CNC(=O)C1CCCc2c[nH]nc21 (stereo not shown) [Compound 101] | 4.30 to 5.00
4 | O=C(O)C1CNCc2c[nH]nc21 (stereo not shown) [Compound 110] | 5.00 to 6.00
5 | C=C[C@@H]1C[C@]1(NC(=O)[C@@H]1C[C@@H](OC(=O)N2Cc3cccc(F)c3C2)CN1C(C)=O)C(=O)NS(=O)(=O)C1CC1 [Compound 90, (3R,5S)-1-acetyl-5-((1R,2S)-1-(cyclopropylsulfonylcarbamoyl)-2-vinylcyclopropylcarbamoyl)pyrrolidin-3-yl 4-fluoroisoindoline-2 carboxylate] | > 7.00
6 | O=C(O)CNC(=O)C1CN(C(=O)Cc2ccccc2)Cc2c[nH]nc21 (stereo not shown) [Compound 108] | 5.00 to 6.00
7 | C=C[C@@H]1C[C@]1(NC(=O)[C@@H]1C[C@@H](OC(=O)N2Cc3cccc(F)c3C2)CN1C(=O)CNC(=O)OC(C)(C)C)C(=O)NS(=O)(=O)C1CC1 [Compound 91] | 6.00 to 7.00
8 | O=C(NC1(C(=O)NS(=O)(=O)C2CC2)CCC1)C1CNCc2c[nH]nc21 (stereo not shown) [Compound 112] | 5.00 to 6.00
9 | O=C(CNC(=O)C1CCCc2c[nH]nc21)NS(=O)(=O)C1CC1 (stereo not shown) [Compound 102] | 5.00 to 6.00
10 | C=C[C@@H]1C[C@]1(NC(=O)C1CN(C(=O)Cc2ccccc2)Cc2c[nH]nc21)C(=O)NS(=O)(=O)C1CC1 (stereo partly drawn) [Compound 103, N-((1R,2S)-1-(cyclopropylsulfonylcarbamoyl)-2-vinylcyclopropyl)-5-(2-phenylacetyl)-4,5,6,7-tetrahydro-2H-pyrazolo[4,3-c]pyridine-7-carboxamide] | 5.00 to 6.00
11 | C=C[C@@H]1C[C@]1(NC(=O)C1CN(C(=O)OC(C)(C)C)Cc2c[nH]nc21)C(=O)NS(=O)(=O)C1CC1 (mixture of isomers) [Compound 104, Tert-butyl 7-((1R,2S)-1-(cyclopropylsulfonylcarbamoyl)-2-vinylcyclopropylcarbamoyl)-6,7-dihydro-2H-pyrazolo[4,3-c]pyridine-5(4H)-carboxylate] | 4.30 to 5.00
12 | C=C[C@@H]1C[C@]1(NC(=O)C1CNCc2c[nH]nc21)C(=O)NS(=O)(=O)C1CC1 (stereo partly drawn) [Compound 111, N-((1R,2S)-1-(cyclopropylsulfonylcarbamoyl)-2-vinylcyclopropyl)-4,5,6,7-tetrahydro-2H-pyrazolo[4,3-c]pyridine-7-carboxamide hydrochloride] | 4.30 to 5.00
13 | CCC[C@H](NC(=O)C1CNCc2c[nH]nc21)C(=O)NS(=O)(=O)C1CC1 (stereo partly shown) [Compound 107] | 4.30 to 5.00
